Measured values: paper PMC7351765, “Gastrin releasing peptide receptor targeted nano-graphene oxide for near-infrared fluorescence imaging of oral squamous cell carcinoma” (Scientific Reports, 2020)

Tests used:
HSC-3 cells [1] = test: Time-dependent cell uptake, flow cytometry; type: cell-based, human; details: HSC-3, 2 × 10^6 cells, 37 °C, performed three times
Method: (§1) The time-dependent experiment was carried out on HSC-3 cells for both AF750-6Ahx-Sta-BBN and NGO-BBN-AF750. […] With increase of incubation time, cells uptake increased, and at the first 15 min, we observed a rapid binding of up to 80%. […] The cell uptake was 83 ± 15% and 89 ± 29% (AF750-6Ahx-Sta-BBN) and 85 ± 15% and 96 ± 20% (NGO-BBN-AF750) at 30 min and 60 min, respectively. We further conducted confocal laser scanning microscope experiments to evaluate the internalization of AF750-6Ahx-Sta-BBN and NGO-BBN-AF750 into HSC-3 cells and HOK cells. Blue fluorescence (Excitation, 460 nm) was used to represent the nuclei of HSC-3 cells. Red (Excitation, 750 nm) channel represents the fluorescence signal of AF750. […] While AF750-6Ahx-Sta-BBN is a GRPR antagonist to the HSC-3, NGO-BBN-AF750 may be internalized into HSC-3 cells via the combined interaction of BBN binding and the endocytosis of the nanoparticle. Evaluating nanotoxicity of NGO-BBN-AF750 was a part of our experimental design.
HSC-3 cells were seeded into 3.5 cm^2 culture dish at a density of 2 × 10^6, next cells were incubated with AF750-6Ahx-Sta-BBN or NGO-AF750-BBN at 37 °C for 15, 30, 60 and 120 min, respectively. Then, cells were washed three times with chilled PBS and harvested for flow cytometry measurements. Experiments were performed three times. For internalization studies, HSC-3 cells were cultured in 24-well plates at 2 × 10^4 cells/well and grown for 24 h. Next, the original medium was replaced with fresh medium containing 50 nM AF750-6Ahx-Sta-BBN or NGO-BBN-AF750. The cells were then incubated for 4 h. After washing the cells three times with PBS, 2.5% paraformaldehyde was used to fix the cells. Then DAPI (Excitation, […]) was used to stain the nuclei of the cells. Finally, the cells were visualized under OLYMPUS FV1200 confocal laser scanning microscope (Olympus, Osaka, Japan). In addition, HOK cells were used as a GRPR-negative control group and cultured with NGO-BBN-AF750, the above experiment was performed and compared to the HSC-3 cells.

GRPR = molecular target: T1, GRPR (Homo sapiens, UniProt P30550); test: Immunofluorescence assay of paraffin tissue sections with the fluorescent probe; details: 4-µm paraffin sections, probe 10 min in the dark, ImageJ quantitation
T1 construct: The paraffin-embedded samples, obtained from the Department of Pathology, Stomatology Hospital of Shanxi Medical University, were cut into 4-µm slices; from tissue; host or cells: paraffin-embedded OSCC tissue and normal oral mucosa sections from patients
T1 sequence (P30550 whole entry): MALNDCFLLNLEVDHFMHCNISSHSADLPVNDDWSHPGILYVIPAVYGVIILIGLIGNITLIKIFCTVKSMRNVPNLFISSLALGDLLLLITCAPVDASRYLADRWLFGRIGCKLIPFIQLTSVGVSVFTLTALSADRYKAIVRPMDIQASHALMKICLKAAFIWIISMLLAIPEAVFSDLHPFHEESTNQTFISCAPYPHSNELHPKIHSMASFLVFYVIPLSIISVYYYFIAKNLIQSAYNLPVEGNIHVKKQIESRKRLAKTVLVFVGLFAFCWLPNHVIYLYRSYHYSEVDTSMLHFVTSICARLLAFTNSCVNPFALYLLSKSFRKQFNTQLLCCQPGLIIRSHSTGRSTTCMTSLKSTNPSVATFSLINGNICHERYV
Method: We analyzed the expression levels of GRPR in primary OSCC sections and the normal tissue sections using AF750-6Ahx-Sta-BBN immunofluorescence assay.
The paraffin-embedded samples, obtained from the Department of Pathology, Stomatology Hospital of Shanxi Medical University, were cut into 4-µm slices. Then tissue blocks were treated with xylene and dehydrated using a graded ethanol series. Following that, the sections were heated for antigen retrieval and incubated in 3% H2O2 to block endogenous peroxidase. The BSA was added and incubated at 37 °C for 30 min. After that, BSA was removed and AF750-6Ahx-Sta-BBN was added and incubated for 10 min in the dark. The slides were observed and imaged using an inverted Olympus fluorescence microscope (Olympus Corp., Osaka, Japan). Quantitative analysis of GRPR expression was performed using ImageJ (https://imagej.nih.gov/ij/). Each patient received written informed consent before the study.

GRPR on HSC-3 cells = molecular target: T2, GRPR on HSC-3 cells (Homo sapiens, UniProt P30550); test: Specificity binding (blocking) assay, NIR fluorescence microscopy; type: cell-based; details: 37 °C
T2 construct: endogenous in cells; host or cells: HSC-3 (human tongue squamous cell carcinoma)
T2 sequence (P30550 whole entry): as above
Method: The binding specificities of AF750-6Ahx-Sta-BBN were determined with HSC-3 cells of human oral tongue squamous cell carcinoma using previously described methods. […] To determine the binding affinity of AF750-6Ahx-Sta-BBN in HSC-3, cells were first incubated with BBN (1–14), then added increasing concentrations of AF750-6Ahx-Sta-BBN (0.005–50 nM). Cells were washed after 50 min incubation and examined by flow cytometry. The binding affinity to GRPR is shown in Fig. 7, and plotted as the fluorescence intensity as function of the AF750-6Ahx-Sta-BBN concentration (Fig. 7B).
Figure 6 The specificity binding assay of AF750-6Ahx-Sta-BBN to GRPR on HSC-3 cells at 37 °C. The scale bar is 30 μm.

[2] = system: GRPR overexpressed in a prostate cancer PC-3 cell line; details: cited from earlier work
Description: AF750-6Ahx-Sta-BBN is a GRPR antagonist peptide analog.

HSC-3 cells [3] = test: Internalization study, confocal laser scanning microscopy; type: cell-based, human; details: HSC-3, 50 nM probe, 4 h, DAPI nuclear stain
Method: as §1
HSC-3 cells were seeded into 3.5 cm^2 culture dish at a density of 2 × 10^6, next cells were incubated with AF750-6Ahx-Sta-BBN or NGO-AF750-BBN at 37 °C for 15, 30, 60 and 120 min, respectively. Then, cells were washed three times with chilled PBS and harvested for flow cytometry measurements. Experiments were performed three times. […]

fluorescence intensity increase, OSCC tissue versus normal oral mucous tissue (GRPR): 2.5 fold | NIR fluorescence of cells, blocking group (GRPR on HSC-3 cells; HSC-3 cells incubated with excessive BBN (1–14) for 10 min before the probe): no fluorescence signal | NIR fluorescence of cells, uptake group (GRPR on HSC-3 cells; HSC-3 cells incubated with probe, no blocking): strong NIR fluorescence signals
Substance: -DPhe-Gln-Trp-Ala-Val-Gly-His-Sta-Leu-NH2 [AF750-6Ahx-Sta-BBN, GRPR-specific Alexa Fluor 750 labeled BBN antagonist peptide; Sta-BBN conjugated to AF750 via 6-aminohexanoic acid linker]
binding in the first 15 min (HSC-3 cells [1]; 15 min): up to 80% | cell uptake at 30 min (HSC-3 cells [1]; 30 min): 83 ± 15% | cell uptake at 60 min (HSC-3 cells [1]; 60 min): 89 ± 29% | binding affinity and specificity to GRPR [2]: high binding affinity and specificity | cellular localisation / internalization (HSC-3 cells [3]): observed on the membrane of HSC-3
